From paper PMC5379148, “A phase I study of intravenous and oral rucaparib in combination with chemotherapy in patients with advanced solid tumours” (British Journal of Cancer, 2017)

Legend:
[1] = Plasma pharmacokinetics of rucaparib (LC-MS/MS, noncompartmental); conditions: for Vd / AUC(0-t) / AUC(0-inf) / Cmax / Tmax / bioavailability / Tmax at 14 days: human, plasma; for AUC(0-inf): AUCinf; for Tmax / Tmax at 14 days: median (minimum, maximum)
Procedure: On cycle 1 days −10, −5, 1, and 14, plasma samples were obtained from all patients before rucaparib dosing and at 15 and 30 min, and at 1, 1.5, 2.5, 4, 6, 10, and 24 h after the start of the rucaparib administration (i.v. infusion (day −10) or oral (days −5, 1, and 14)). On cycle 1 days −10 and −5, samples were also obtained 48 h after the start of rucaparib administration. Rucaparib concentration was determined using liquid chromatography with tandem mass spectrometry.
Plasma clearance or apparent plasma clearance and steady-state volume of distribution were calculated for rucaparib. The oral bioavailability of rucaparib was calculated as the ratio of dose-normalised AUC0–t or AUCinf (data permitting) determined using oral rucaparib PK data collected on cycle 1 day −5 to that determined using the i.v. PK data collected on cycle 1 day −10. Pharmacokinetic parameters were summarised with the geometric mean and the coefficient of variation (CV). The ratio of Cmax and AUC0–24 of rucaparib administered in combination with chemotherapies to those of rucaparib alone was calculated and summarised, with mean and CV% to evaluate the effect of chemotherapies on the PK of rucaparib for both the i.v. dose (day −10) and oral dose (day −5).
The oral bioavailability of rucaparib was calculated as the ratio of dose-normalised AUC0-t or AUCinf (data permitting) determined using oral rucaparib PK data collected on cycle 1 day –5 to that determined using the intravenous PK data collected on cycle 1 day –10. The tmax was summarised with medians and ranges. The accumulation ratio after multiple oral rucaparib dosing (once daily) was assessed as the ratio of the AUC0-24 determined using PK collected on cycle 1 day 14 to the AUC0-24 after the cycle 1 day –5 lead-in dose. The ratio of the Cmax on day 14 to the Cmax on day –5 was also calculated. Additionally, the ratio of the AUC0-24 on cycle 1 day 14 to the AUCinf after the cycle 1 day –5 lead-in dose was calculated as an indication for any time-dependent change in rucaparib PK.

[2] = tested on: patients with advanced solid tumours; conditions: single-agent oral rucaparib; ref Kristeleit et al, 2014; cited from earlier work
[3] = iv, 12 mg, single i.v. dose 12 mg, day –10, geometric mean (CV%)
[4] = iv, 18 mg, single i.v. dose 18 mg, day –10, geometric mean (CV%)
[5] = iv, 24 mg, single i.v. dose 24 mg, day –10, geometric mean (CV%)
[6] = iv, 27 mg, single i.v. dose 27 mg, day –10, geometric mean (CV%)
[7] = iv, 40 mg, single i.v. dose 40 mg, day –10, geometric mean (CV%)
[8] = po, 12 mg, single oral dose 12 mg, day –5, geometric mean (CV%)
[9] = po, 36 mg, single oral dose 36 mg, day –5, geometric mean (CV%)
[10] = po, 48 mg, single oral dose 48 mg, day –5, geometric mean (CV%)
[11] = po, 72 mg, single oral dose 72 mg, day –5, geometric mean (CV%)
[12] = po, 80 mg, single oral dose 80 mg, day 1, geometric mean (CV%)
[13] = po, 80 mg, single oral dose 80 mg, day –5, geometric mean (CV%)
[14] = po, 120 mg, single oral dose 120 mg, day 1, geometric mean (CV%)
[15] = po, 120 mg, single oral dose 120 mg, day –5, geometric mean (CV%)
[16] = po, 180 mg, single oral dose 180 mg, day –5, geometric mean (CV%)
[17] = po, 240 mg, single oral dose 240 mg, day 1, geometric mean (CV%)
[18] = po, 240 mg, single oral dose 240 mg, day –5, geometric mean (CV%)
[19] = po, 360 mg, single oral dose 360 mg, day 1, geometric mean (CV%)
[20] = po, 360 mg, single oral dose 360 mg, day –5, geometric mean (CV%)

## CNCc1ccc(-c2[nH]c3cc(F)cc4c3c2CCNC4=O)cc1 [rucaparib]
[1]; carboplatin+paclitaxel, cisplatin+pemetrexed, or epirubicin+cyclophosphamide
  impact of chemotherapy coadministration on i.v. rucaparib PK: No apparent impact
[1]; iv, 12 mg
  Vd: 258 L
[1]; iv, 12 mg, AUC0-24, single i.v. dose 12 mg, day –10, geometric mean (CV%)
  AUC(0-t): 549 ng·h/mL
[1]; [3]
  AUC(0-inf): 740 ng·h/mL
  Cmax: 324 ng/mL
[1]; iv, 12 mg, single i.v. dose 12 mg, day –10
  Tmax: 0.5 h
[1]; iv, 18 mg
  Vd: 234 L
[1]; iv, 18 mg, AUC0-24, single i.v. dose 18 mg, day –10, geometric mean (CV%)
  AUC(0-t): 812 ng·h/mL
[1]; [4]
  AUC(0-inf): 976 ng·h/mL
  Cmax: 498 ng/mL
[1]; iv, 18 mg, single i.v. dose 18 mg, day –10
  Tmax: 0.5 h
[1]; iv, 24 mg
  Vd: 262 L
[1]; iv, 24 mg, AUC0-24, single i.v. dose 24 mg, day –10, geometric mean (CV%)
  AUC(0-t): 1220 ng·h/mL
[1]; [5]
  AUC(0-inf): 1710 ng·h/mL
  Cmax: 627 ng/mL
[1]; iv, 24 mg, single i.v. dose 24 mg, day –10
  Tmax: 0.5 h
[1]; iv, 27 mg
  Vd: 191 L
[1]; iv, 27 mg, AUC0-24, single i.v. dose 27 mg, day –10, geometric mean (CV%)
  AUC(0-t): 1450 ng·h/mL
[1]; [6]
  AUC(0-inf): 1900 ng·h/mL
  Cmax: 866 ng/mL
[1]; iv, 27 mg, single i.v. dose 27 mg, day –10
  Tmax: 0.38 h
[1]; iv, 40 mg
  Vd: 113 L
[1]; iv, 40 mg, AUC0-24, single i.v. dose 40 mg, day –10, geometric mean (CV%)
  AUC(0-t): 2530 ng·h/mL
[1]; [7]
  AUC(0-inf): 2880 ng·h/mL
  Cmax: 1610 ng/mL
[1]; iv, 40 mg, single i.v. dose 40 mg, day –10
  Tmax: 0.5 h
[1]; po
  bioavailability: 36%
[1]; po, 12 mg
  bioavailability: 33.4%
[1]; po, 12 mg, AUC0-24, single oral dose 12 mg, day –5, geometric mean (CV%)
  AUC(0-t): 155 ng·h/mL
[1]; [8]
  AUC(0-inf): 225 ng·h/mL
  Cmax: 24 ng/mL
[1]; po, 12 mg, single oral dose 12 mg, day –5
  Tmax: 1 h
[1]; po, 36 mg
  bioavailability: 45.3%
[1]; po, 36 mg, AUC0-24, single oral dose 36 mg, day –5, geometric mean (CV%)
  AUC(0-t): 696 ng·h/mL
[1]; [9]
  AUC(0-inf): 1100 ng·h/mL
  Cmax: 90 ng/mL
[1]; po, 36 mg, single oral dose 36 mg, day –5
  Tmax: 2 h
[1]; po, 48 mg
  bioavailability: 33.6%
[1]; po, 48 mg, AUC0-24, single oral dose 48 mg, day –5, geometric mean (CV%)
  AUC(0-t): 620 ng·h/mL
[1]; [10]
  AUC(0-inf): 922 ng·h/mL
  Cmax: 80 ng/mL
[1]; po, 48 mg, single oral dose 48 mg, day –5
  Tmax: 1.25 h
[1]; po, 72 mg
  bioavailability: 30.1%
[1]; po, 72 mg, AUC0-24, single oral dose 72 mg, day –5, geometric mean (CV%)
  AUC(0-t): 893 ng·h/mL
[1]; [11]
  AUC(0-inf): 1090 ng·h/mL
  Cmax: 108 ng/mL
[1]; po, 72 mg, single oral dose 72 mg, day –5
  Tmax: 2 h
[1]; po, 80 mg
  bioavailability: 30.7%
[1]; po, 80 mg, AUC0-24, oral 80 mg q.d. for 14 days, n = 1
  AUC(0-t): 2210 ng·h/mL
[1]; po, 80 mg, AUC0-24, single oral dose 80 mg, day 1, geometric mean (CV%)
  AUC(0-t): 1380 ng·h/mL
[1]; po, 80 mg, AUC0-24, single oral dose 80 mg, day –5, geometric mean (CV%)
  AUC(0-t): 1270 ng·h/mL
[1]; [12]
  AUC(0-inf): 1700 ng·h/mL
  Cmax: 99 ng/mL
[1]; [13]
  AUC(0-inf): 1920 ng·h/mL
  Cmax: 114 ng/mL
[1]; po, 80 mg, oral 80 mg q.d. for 14 days, n = 1
  Cmax: 190 ng/mL
[1]; po, 80 mg, oral 80 mg q.d. for 14 days
  Tmax at 14 days: 2.5 h
[1]; po, 80 mg, single oral dose 80 mg, day 1
  Tmax: 4 h
[1]; po, 80 mg, single oral dose 80 mg, day –5
  Tmax: 2.5 h
[1]; po, 120 mg
  bioavailability: 41.1%
[1]; po, 120 mg, AUC0-24, oral 120 mg q.d. for 14 days, geometric mean (CV%)
  AUC(0-t): 4040 ng·h/mL
[1]; po, 120 mg, AUC0-24, single oral dose 120 mg, day 1, geometric mean (CV%)
  AUC(0-t): 3260 ng·h/mL
[1]; po, 120 mg, AUC0-24, single oral dose 120 mg, day –5, geometric mean (CV%)
  AUC(0-t): 2920 ng·h/mL
[1]; [14]
  AUC(0-inf): 3770 ng·h/mL
  Cmax: 344 ng/mL
[1]; [15]
  AUC(0-inf): 4070 ng·h/mL
  Cmax: 274 ng/mL
[1]; po, 120 mg, oral 120 mg q.d. for 14 days, geometric mean (CV%)
  Cmax: 375 ng/mL
[1]; po, 120 mg, oral 120 mg q.d. for 14 days
  Tmax at 14 days: 2.5 h
[1]; po, 120 mg, single oral dose 120 mg, day 1
  Tmax: 4 h
[1]; po, 120 mg, single oral dose 120 mg, day –5
  Tmax: 4 h
[1]; po, 180 mg, AUC0-24, oral 180 mg q.d. for 14 days, geometric mean (CV%)
  AUC(0-t): 7660 ng·h/mL
[1]; po, 180 mg, AUC0-24, single oral dose 180 mg, day 1, geometric mean (CV%)
  AUC(0-t): 5920 ng·h/mL
[1]; po, 180 mg, AUC0-24, single oral dose 180 mg, day –5, geometric mean (CV%)
  AUC(0-t): 5610 ng·h/mL
[1]; [16]
  AUC(0-inf): 8410 ng·h/mL
  Cmax: 410 ng/mL
[1]; po, 180 mg, oral 180 mg q.d. for 14 days, geometric mean (CV%)
  Cmax: 454 ng/mL
[1]; po, 180 mg, single oral dose 180 mg, day 1, geometric mean (CV%)
  Cmax: 527 ng/mL
[1]; po, 180 mg, oral 180 mg q.d. for 14 days
  Tmax at 14 days: 4 h
[1]; po, 180 mg, single oral dose 180 mg, day 1
  Tmax: 6 h
[1]; po, 180 mg, single oral dose 180 mg, day –5
  Tmax: 4 h
[1]; po, 240 mg, AUC0-24, oral 240 mg q.d. for 14 days, geometric mean (CV%)
  AUC(0-t): 7560 ng·h/mL
[1]; po, 240 mg, AUC0-24, single oral dose 240 mg, day 1, geometric mean (CV%)
  AUC(0-t): 5130 ng·h/mL
[1]; po, 240 mg, AUC0-24, single oral dose 240 mg, day –5, geometric mean (CV%)
  AUC(0-t): 5030 ng·h/mL
[1]; [17]
  AUC(0-inf): 4370 ng·h/mL
  Cmax: 493 ng/mL
[1]; [18]
  AUC(0-inf): 6990 ng·h/mL
  Cmax: 442 ng/mL
[1]; po, 240 mg, oral 240 mg q.d. for 14 days, geometric mean (CV%)
  Cmax: 527 ng/mL
[1]; po, 240 mg, oral 240 mg q.d. for 14 days
  Tmax at 14 days: 4 h
[1]; po, 240 mg, single oral dose 240 mg, day 1
  Tmax: 4 h
[1]; po, 240 mg, single oral dose 240 mg, day –5
  Tmax: 4 h
[1]; po, 360 mg, AUC0-24, oral 360 mg q.d. for 14 days, geometric mean (CV%)
  AUC(0-t): 15600 ng·h/mL
[1]; po, 360 mg, AUC0-24, single oral dose 360 mg, day 1, geometric mean (CV%)
  AUC(0-t): 8280 ng·h/mL
[1]; po, 360 mg, AUC0-24, single oral dose 360 mg, day –5, geometric mean (CV%)
  AUC(0-t): 9170 ng·h/mL
[1]; [19]
  AUC(0-inf): 9980 ng·h/mL
  Cmax: 697 ng/mL
[1]; [20]
  AUC(0-inf): 11000 ng·h/mL
  Cmax: 814 ng/mL
[1]; po, 360 mg, oral 360 mg q.d. for 14 days, geometric mean (CV%)
  Cmax: 1050 ng/mL
[1]; po, 360 mg, oral 360 mg q.d. for 14 days
  Tmax at 14 days: 4 h
[1]; po, 360 mg, single oral dose 360 mg, day 1
  Tmax: 4 h
[1]; po, 360 mg, single oral dose 360 mg, day –5
  Tmax: 4 h
[2]
  recommended phase II dose: 600 mg twice daily
